From paper PMC8213057, “Targeting ALK2: An Open Science Approach to Developing Therapeutics for the Treatment of Diffuse Intrinsic Pontine Glioma” (Journal of Medicinal Chemistry, 2020)
Where “and” joins values, the source holds several entries; their conditions need not be identical. Identical values can stand only once.

Key:
[1] = target: T1, BRSK1 (Homo sapiens, UniProt Q8TDC3); conditions: 1 μM; Run 1, Run 2
T1 sequence (Q8TDC3 1-778): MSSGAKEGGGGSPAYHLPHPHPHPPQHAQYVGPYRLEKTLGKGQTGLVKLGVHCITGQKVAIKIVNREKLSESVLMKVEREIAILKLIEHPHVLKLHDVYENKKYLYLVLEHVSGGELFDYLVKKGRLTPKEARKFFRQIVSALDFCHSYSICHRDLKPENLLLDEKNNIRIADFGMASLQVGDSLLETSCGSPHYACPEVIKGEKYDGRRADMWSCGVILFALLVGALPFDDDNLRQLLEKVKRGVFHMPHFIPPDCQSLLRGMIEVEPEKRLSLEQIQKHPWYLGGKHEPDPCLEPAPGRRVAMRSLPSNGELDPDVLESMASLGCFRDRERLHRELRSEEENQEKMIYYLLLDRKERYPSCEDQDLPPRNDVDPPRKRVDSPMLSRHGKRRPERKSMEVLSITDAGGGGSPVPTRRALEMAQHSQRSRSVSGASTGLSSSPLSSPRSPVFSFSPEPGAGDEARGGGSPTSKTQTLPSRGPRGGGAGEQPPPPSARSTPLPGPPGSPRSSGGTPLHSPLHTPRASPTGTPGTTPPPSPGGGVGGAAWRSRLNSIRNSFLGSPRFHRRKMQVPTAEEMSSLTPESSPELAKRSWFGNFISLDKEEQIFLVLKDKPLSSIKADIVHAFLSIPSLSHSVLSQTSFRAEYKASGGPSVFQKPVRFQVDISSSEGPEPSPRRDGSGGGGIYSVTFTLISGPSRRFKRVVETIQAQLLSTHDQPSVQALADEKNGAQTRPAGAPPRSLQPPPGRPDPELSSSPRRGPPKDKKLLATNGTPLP

[2] = target: SIK1 (Homo sapiens, UniProt P57059); assay: biochemical; conditions: read-out: % enzyme activity, 1 μM; Run 1, Run 2
Sequence of SIK1 (P57059 whole entry): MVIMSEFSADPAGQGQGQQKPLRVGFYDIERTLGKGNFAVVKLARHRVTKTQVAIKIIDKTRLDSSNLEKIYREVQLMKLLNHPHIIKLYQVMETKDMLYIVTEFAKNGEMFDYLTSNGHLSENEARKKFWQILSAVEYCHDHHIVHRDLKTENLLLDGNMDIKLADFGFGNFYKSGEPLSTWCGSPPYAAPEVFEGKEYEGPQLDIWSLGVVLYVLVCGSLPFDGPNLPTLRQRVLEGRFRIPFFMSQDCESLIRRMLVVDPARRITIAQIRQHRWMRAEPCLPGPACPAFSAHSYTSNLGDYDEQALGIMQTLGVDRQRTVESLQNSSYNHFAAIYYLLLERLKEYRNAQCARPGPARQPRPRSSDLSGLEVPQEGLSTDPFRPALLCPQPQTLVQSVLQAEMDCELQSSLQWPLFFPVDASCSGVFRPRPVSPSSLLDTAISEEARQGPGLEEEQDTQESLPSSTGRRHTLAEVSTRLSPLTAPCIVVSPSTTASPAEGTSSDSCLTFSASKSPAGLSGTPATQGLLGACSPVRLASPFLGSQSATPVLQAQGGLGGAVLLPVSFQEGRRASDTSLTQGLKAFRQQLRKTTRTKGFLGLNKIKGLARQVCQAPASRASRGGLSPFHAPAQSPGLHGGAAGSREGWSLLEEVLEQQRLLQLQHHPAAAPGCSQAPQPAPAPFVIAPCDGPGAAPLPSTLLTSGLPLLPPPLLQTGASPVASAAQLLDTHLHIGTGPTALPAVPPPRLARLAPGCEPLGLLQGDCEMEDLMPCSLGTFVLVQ

[3] = test system: ALK5/TGFBR1
[4] = target: T2, EPHB4 (Homo sapiens, UniProt P54760); assay: biochemical; conditions: read-out: % enzyme activity, 1 μM; Run 1, Run 2
T2 sequence (P54760 16-987): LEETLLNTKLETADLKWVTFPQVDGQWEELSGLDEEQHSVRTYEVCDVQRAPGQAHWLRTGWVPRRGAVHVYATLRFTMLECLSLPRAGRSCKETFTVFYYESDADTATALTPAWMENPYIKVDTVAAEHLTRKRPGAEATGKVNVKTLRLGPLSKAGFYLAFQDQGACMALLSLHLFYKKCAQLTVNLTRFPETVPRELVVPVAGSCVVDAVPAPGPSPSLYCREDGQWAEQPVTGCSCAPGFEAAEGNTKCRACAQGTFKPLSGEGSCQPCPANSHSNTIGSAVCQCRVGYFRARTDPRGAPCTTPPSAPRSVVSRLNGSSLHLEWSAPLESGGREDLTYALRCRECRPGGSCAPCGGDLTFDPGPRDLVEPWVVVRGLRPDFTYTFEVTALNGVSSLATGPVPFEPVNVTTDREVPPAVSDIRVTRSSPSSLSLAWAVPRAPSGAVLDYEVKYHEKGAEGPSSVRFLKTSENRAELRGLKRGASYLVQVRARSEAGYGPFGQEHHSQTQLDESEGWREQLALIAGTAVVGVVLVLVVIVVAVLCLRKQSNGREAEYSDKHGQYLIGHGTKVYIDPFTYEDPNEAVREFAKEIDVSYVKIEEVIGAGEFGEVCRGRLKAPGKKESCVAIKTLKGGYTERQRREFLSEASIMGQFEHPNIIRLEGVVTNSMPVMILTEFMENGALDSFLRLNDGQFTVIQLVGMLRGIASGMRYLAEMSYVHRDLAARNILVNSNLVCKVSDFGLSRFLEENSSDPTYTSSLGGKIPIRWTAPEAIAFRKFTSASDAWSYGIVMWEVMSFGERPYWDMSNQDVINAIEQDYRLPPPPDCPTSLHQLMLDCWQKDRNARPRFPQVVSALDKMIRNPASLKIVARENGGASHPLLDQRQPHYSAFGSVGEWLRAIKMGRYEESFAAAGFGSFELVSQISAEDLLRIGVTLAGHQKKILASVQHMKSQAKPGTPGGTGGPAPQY

[5] = target: PKA (Homo sapiens, UniProt P17612); conditions: 1 μM; Run 1, Run 2
[6] = target: T3, PBK/TOPK (Homo sapiens, UniProt Q96KB5); assay: biochemical; conditions: read-out: % enzyme activity, 1 μM; Run 1, Run 2
T3 sequence (Q96KB5 1-322): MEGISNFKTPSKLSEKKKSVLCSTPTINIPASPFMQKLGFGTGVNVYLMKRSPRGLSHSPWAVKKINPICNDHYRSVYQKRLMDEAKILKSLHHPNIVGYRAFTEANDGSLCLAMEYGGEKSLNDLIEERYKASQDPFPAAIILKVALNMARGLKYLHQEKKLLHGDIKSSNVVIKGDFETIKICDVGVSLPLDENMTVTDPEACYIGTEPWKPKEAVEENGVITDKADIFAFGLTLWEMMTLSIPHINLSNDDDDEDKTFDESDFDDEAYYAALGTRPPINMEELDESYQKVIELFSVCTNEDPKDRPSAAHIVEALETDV

[7] = target: CDK3/cyclin E2 (Homo sapiens, UniProt Q00526); conditions: 1 μM; Run 1, Run 2
Sequence of CDK3/cyclin E2 (Q00526 whole entry): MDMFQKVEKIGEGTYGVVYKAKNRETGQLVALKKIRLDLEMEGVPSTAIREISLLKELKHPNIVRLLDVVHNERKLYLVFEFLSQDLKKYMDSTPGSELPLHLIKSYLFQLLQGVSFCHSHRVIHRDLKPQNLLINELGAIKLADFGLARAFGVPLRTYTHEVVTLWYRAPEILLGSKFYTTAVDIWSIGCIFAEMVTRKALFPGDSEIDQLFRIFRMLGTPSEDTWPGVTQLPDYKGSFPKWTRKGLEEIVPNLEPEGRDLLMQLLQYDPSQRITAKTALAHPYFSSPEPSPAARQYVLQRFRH
Sequence of CDK3/cyclin E2 (O96020 whole entry partner): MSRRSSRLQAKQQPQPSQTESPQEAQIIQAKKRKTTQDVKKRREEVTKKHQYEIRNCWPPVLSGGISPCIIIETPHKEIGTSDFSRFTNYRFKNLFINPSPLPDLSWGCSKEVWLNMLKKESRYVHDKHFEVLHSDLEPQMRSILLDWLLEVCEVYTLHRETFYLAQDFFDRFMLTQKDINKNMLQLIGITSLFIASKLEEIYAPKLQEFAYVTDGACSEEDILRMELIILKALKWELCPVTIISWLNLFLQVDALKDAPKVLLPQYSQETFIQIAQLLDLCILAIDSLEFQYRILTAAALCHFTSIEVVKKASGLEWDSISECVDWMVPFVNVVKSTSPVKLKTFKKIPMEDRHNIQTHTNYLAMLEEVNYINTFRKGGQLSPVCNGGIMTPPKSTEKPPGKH

Row | SMILES | % enzyme activity [1] [%] | remaining activity at 1 µM [2] [%] | % enzyme activity at 1 μM [3] | remaining activity at 1 µM [4] [%] | % enzyme activity [5] [%] | remaining activity at 1 µM [6] [%] | % enzyme activity [7] [%]
1 | COc1cc(-c2cncc(-c3ccc(N4CCN(C)CC4)cc3)c2C)cc(F)c1C(N)=O [Compound 26a, 2-Fluoro-6-methoxy-4-(4-methyl-5-(4-(4-methylpiperazin-1-yl)phenyl)pyridin-3-yl)benzamide] | 83.89 | 82.9 | 82.5% and 82.3% | 94.7 | 96.94 | 91.8 | 88.05
2 | COc1cc(-c2cncc(-c3ccc(N4C[C@@H](C)N(C)[C@@H](C)C4)cc3)c2C)cc(F)c1C(N)=O [Compound 26c, 2-Fluoro-6-methoxy-4-(4-methyl-5-(4-((3R,5S)-3,4,5-trimethylpiperazin-1-yl)phenyl)pyridin-3-yl)benzamide] | 78.18 | 93.8 | 97.2% and 96.6% | 91.5 | 95.62 | 103 | 83.94
